Reference: the NIST ThermoML archive (doi:10.1021/acs.jced.9b00509)

Test: mean ionic activity coefficient (dimensionless); mn = molality of the nth substance listed, in mol/kg
Conditions: 278.15 K, 100 kPa, Liquid, cell potential measurements

[Cl-].[Na+] [sodium chloride] + O
Conditions | mean ionic activity coefficient
m1 = 0.0101 | 0.895
m1 = 0.05 | 0.833
m1 = 0.0999 | 0.771
m1 = 0.1999 | 0.741
m1 = 0.5 | 0.642
m1 = 0.9999 | 0.619
m1 = 1.999 | 0.628
m1 = 2.999 | 0.654
